Patent publication US10934272B2, “Pyridyl derivatives as bromodomain inhibitors” (GlaxoSmithKline Intellectual Property (No. 2) Limited, priority 2016, dated 2021)

Columns and labels:
[1] = target: T1, BRD4 BD2 (Homo sapiens, UniProt O60885, Y97A); assay: TR-FRET competition assay, BRD4 BD2 (single mutant tandem bromodomain protein); type: binding; conditions: for IC50: read-out: pIC50 in the BRD4 BD2 assay (converted); for selectivity for BRD4 BD2 over BRD4 BD1: Selectivity = BRD4 BD2 pIC50 - BRD4 BD1 pIC50, in at least one of the TR-FRET assays; for fold selective for BRD4 BD2 over BRD4 BD1: from the pIC50 difference BRD4 BD2 - BRD4 BD1
T1 construct: BRD4 (1-477) (Y97A) and (Y390A); made in house; host or cells: E. coli (pET15b vector)
Procedure: Time Resolved Fluorescence Resonance Energy Transfer (TR-FRET) Assay
Bromodomain binding was assessed utilising a time resolved fluorescent resonance energy transfer (TR-FRET) competition assay. To enable this approach a known, high affinity, pan-BET interacting small molecule was labelled with Alexa Fluor® 647, which is a far-red-fluorescent dye (Reference Compound X). Reference Compound X acts as a reporter of bromodomain binding and is the acceptor fluorophore component of the TR-FRET pair. Europium chelate, conjugated to an anti-6*His antibody, was utilised as the donor fluorophore in the TR-FRET pair. […] A TR-FRET signal is generated when the donor and acceptor fluorophores are in close proximity, between 20-80 Å, which is enabled in this assay by binding of Reference Compound X to the bromodomain protein.
If the acceptor fluorophore is in close proximity then energy transfer can occur, which leads to emission of Alexa Fluor® 647 at λ665 nm. In the presence of competitor compound, Reference Compound X can be displaced from binding to the bromodomain. If displacement occurs, the acceptor fluorophore is no longer in proximity to the donor fluorophore, which prevents fluorescent energy transfer and, subsequently, a loss of Alexa Fluor® 647 emission at λ665 nm.
The competition of the compounds of formula (I) with Reference Compound X for binding to the BET family (BRD2, BRD3, BRD4 and BRDT) was assessed using protein truncates spanning both bromodomain 1 (BD1) and bromodomain 2 (BD2). In order to monitor differential binding to either BD1 or BD2, single residue mutations of key tyrosines to alanine were made in the acetyl lysine binding pockets. To validate this approach, a double residue mutant tandem domain protein was produced for each of the BET family members. Utilising a Fluorescence Polarisation approach, binding affinities for each of the single and double mutants for Reference Compound X were determined. […] Final purification was completed by Superdex 200 prep grade size exclusion column. Purified protein was stored at −80° C. in 20 mM HEPES pH 7.5 and 100 mM NaCl.
Protocol for Bromodomain BRD2, 3, 4 and T, BD1+BD2 mutant TR-FRET competition assays:
All assay components were dissolved in an assay buffer composing of 50 mM HEPES pH7.4, 50 mM NaCl, 5% Glycerol, 1 mM DTT and 1 mM CHAPS. […] The solution containing bromodomain and Reference Compound X was added to dose response dilutions of test compound or DMSO vehicle (a maximum of 0.5% DMSO is used in this assay) in Greiner 384 well black low volume microtitre plates and subsequently incubated for 30 minutes at room temperature. An equal volume of 3 nM of anti-6*His Europium chelate was added to all wells, followed by a further 30 minute incubation at room temperature. TR-FRET was detected using a Perkin Elmer Multimode plate reader, by exciting the donor fluorophore at A337 nm and subsequently, after a delay of 50 μsecs, measuring emission of the donor and acceptor fluorophores at A615 nm and λ665 nm, respectively. In order to control these assays, 16 replicates each of uninhibited (DMSO vehicle) and inhibited (10*IC50 concentrations of Example 11 of WO 2011/054846A1) TR-FRET assays were included on every microtitre plate.
cA four parameter curve fit of the following form was then applied: y=a+((b−a)/(1+(10^x/10^c)^d)
Where ‘a’ is the minimum, ‘b’ is the Hill slope, ‘c’ is the pIC50 and ‘d’ is the maximum.

[2] = tested on: BET family (BRD2, BRD3, BRD4 and BRDT) tandem bromodomain proteins, Tyrosine to Alanine mutants; assay: Fluorescence Polarisation binding of Reference Compound X to single and double mutant tandem BET proteins; set-up: species or system Human
Procedure: The competition of the compounds of formula (I) with Reference Compound X for binding to the BET family (BRD2, BRD3, BRD4 and BRDT) was assessed using protein truncates spanning both bromodomain 1 (BD1) and bromodomain 2 (BD2). In order to monitor differential binding to either BD1 or BD2, single residue mutations of key tyrosines to alanine were made in the acetyl lysine binding pockets. To validate this approach, a double residue mutant tandem domain protein was produced for each of the BET family members. Utilising a Fluorescence Polarisation approach, binding affinities for each of the single and double mutants for Reference Compound X were determined. […] The affinities of the single mutated bromodomain tandem proteins for Reference Compound X were equi-potent with the corresponding non-mutated BET protein. […] Final purification was completed by Superdex 200 prep grade size exclusion column. Purified protein was stored at −80° C. in 20 mM HEPES pH 7.5 and 100 mM NaCl. Protein identity was confirmed by peptide mass fingerprinting and predicted molecular weight confirmed by mass spectrometry.

[3] = TR-FRET competition with Reference Compound X, values exemplary only

Structure (SMILES) | IC50 [1, 3] [nM] | other results
CNC(=O)c1cc(C(=O)N[C@H]2[C@@H]3COC[C@@H]32)cc(Cc2cccc3c2CCN3)n1 [Example 130, N^4-((1R,5S,6r)-3-Oxabicyclo[3.1.0]hexan-6-yl)-6-(indolin-4-ylmethyl)-N^2-methylpyridine-2,4-dicarboxamide] | 50.1 | 
CNC(=O)c1cc(C(=O)N[C@H]2[C@@H]3COC[C@@H]32)cc([C@@H](CF)c2ccccc2)n1 (single isomer, unassigned) [Example 165, N^4-((1R,5S,6r)-3-Oxabicyclo[3.1.0]hexan-6-yl)-6-((S*)-2-fluoro-1-phenylethyl)-N^2-methylpyridine-2,4-dicarboxamide] | 1000 to 10000 | 
COc1ccc2c(c1)C(c1ccc(Cl)cc1)=N[C@@H](CC(=O)NCCCCCNC(=O)CCCCCC1(C)/C(=C/C=C/C=C/C3=[N+](CCCCS(=O)(=O)O)c4ccc(S(=O)(=O)O)cc4C3(C)C)N(CCCCS(=O)(=O)[O-])c3ccc(S(=O)(=O)O)cc31)c1nnc(C)n1-2 (stereo partly drawn) [Reference Compound X] |  | reduction in Kd (affinity) of double mutant tandem proteins in comparison to non mutated, wild type tandem BET proteins ([2]; double residue mutant tandem domain protein, each BET family member): > 1000 fold; reduction of the Kd of the interaction between the mutated bromodomain and Reference Compound X ([2]; single mutations of Tyrosine to Alanine): > 1000 fold
CNC(=O)c1cc(C(=O)NCC2CCCCO2)cc(Cc2ccccc2)n1 (racemic) [Example 85, (+/−)-6-Benzyl-N^2-methyl-N^4-((tetrahydro-2H-pyran-2-yl)methyl)pyridine-2,4-dicarboxamide] | 1000 to 10000 | 
CNC(=O)c1cc(C(=O)N[C@H]2[C@@H]3COC[C@@H]32)cc(C(CF)c2ccccc2)n1 (mixture of isomers) [Example 164, (+/−)-N^4-((1R,5S,6r)-3-Oxabicyclo[3.1.0]hexan-6-yl)-6-(2-fluoro-1-phenylethyl)-N^2-methylpyridine-2,4-dicarboxamide] | 1000 to 10000 | 
CNC(=O)c1cc(C(=O)NCC2CCOCC2)cc(Cc2ccccc2)n1 [Example 87, 6-Benzyl-N^2-methyl-N^4-((tetrahydro-2H-pyran-4-yl)methyl)pyridine-2,4-dicarboxamide] | 1000 to 10000 | 
CNC(=O)c1cc(C(=O)NCC2CCCO2)cc(Cc2ccccc2)n1 (racemic) [Example 84, (+/−)-6-Benzyl-N^2-methyl-N^4-((tetrahydrofuran-2-yl)methyl)pyridine-2,4-dicarboxamide] | 1000 to 10000 | 
CNC(=O)c1cc(C(=O)N[C@H]2[C@@H]3COC[C@@H]32)cc([C@H](CF)c2ccccc2)n1 (single isomer, unassigned) [Example 166, N^4-((1R,5S,6r)-3-Oxabicyclo[3.1.0]hexan-6-yl)-6-((R*)-2-fluoro-1-phenylethyl)-N^2-methylpyridine-2,4-dicarboxamide] | 1000 to 10000 | 
CNC(=O)c1cc(C(=O)NCCCC2OCC(N)CO2)cc(C(OC)c2ccccc2)n1 [Example 161, N^4-(3-((2r,5S)-5-Amino-1,3-dioxan-2-yl)propyl)-6-((R*)-methoxy(phenyl)methyl)-N2-methylpyridine-2,4-dicarboxamide] |  | selectivity for BRD4 BD2 over BRD4 BD1 [1]: 3.2 log units; pIC50 in the BRD4 BD2 assay [1, 3]: 7.6 log10 units; fold selective for BRD4 BD2 over BRD4 BD1 [1]: at least 1000 fold
CNC(=O)c1cc(C(=O)NCC[C@H]2CNCCO2)cc(C(C)c2ccccc2)n1 (single isomer, unassigned) [Example 41, N^2-Methyl-N^4-(2-((S)-morpholin-2-yl)ethyl)-6-((S*)-1-phenylethyl)pyridine-2,4-dicarboxamide] | 39.8 | selectivity for BRD4 BD2 over BRD4 BD1 [1]: 3.0 log units; fold selective for BRD4 BD2 over BRD4 BD1 [1]: at least 1000 fold
